Data on 13 molecules can be found in PubChem BioAssay (NCI).

Structures are written as SMILES.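 Each compound was tested at five concentrations against cells in 96-well plates for 48 hours. GI50 marks 50% less growth. TGI: concentration producing complete growth inhibition.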 *1 amine or outer side, *2 acyl side, *3 side chain or, on linkers, in order; H or OH if unused. Where a SMILES comes first, the peptide text is derived from it. The star is where a group is joined. γGlu = O=C(O)[CH](CCC(=O)[*:2])N[*:1]; NHOH = ON*

What all share (experiment): inhibition of tumour cell growth, NCI panel, 48 h
Assay [1] relates to NCI-H23 lung.
The test system of assay [2] is HT29 colon.
Assay [3] deals with OVCAR-3 ovarian.
The subject of assay [4] is MDA-MB-435.
The test system of assay [5] is A498 renal.
The test system of assay [6] is SF-539 CNS.
Assay [7] concerns BT-549 breast.
Assay [8] relates to HOP-62 NSCLC.
Assay [9] deals with SNB-19 CNS.
For assay [10], the system named is EKVX NSCLC.

As to `COc1ccccc1C1C(C#N)=C(N)SC(N)=C1C#N`, the GI50 is 97 µM in assay [1]; 37.4 µM in assay [2]; 62.4 µM in assay [3]; 52.8 µM in assay [4]; greater than 100 µM in assay [5]; 90.7 µM in assay [6]. Further, the GI50 is 55.6 µM in [7], greater than 100 µM in [8], greater than 100 µM in [9] and greater than 100 µM in assay [10]. The TGI in assay [1], in assay [2], in assay [3], in assay [4], in assay [5] and in assay [6] was greater than 100 µM throughout. Moreover, the TGI in assay [7], in assay [8], in assay [9] and in [10] was greater than 100 µM in each case.
In the case of `OC1C2CN3CCN(C2)CC1(c1ccccc1)C3` (stereo not given), the TGI in [1], in assay [2], in [3], in assay [4], in assay [5] and in assay [6] was greater than 100 µM in each case. Besides, the TGI in assay [7], in assay [8], in [9] and in assay [10] was greater than 100 µM in each case.
`COc1cc2ncnc(Nc3cccc(Br)c3)c2cc1OC`: the TGI in assay [1] turned out to be 28.7 µM; in assay [2] it was 18.8 µM; in assay [3], 45.4 µM; in assay [4], 49.7 µM; in assay [5], 29.4 µM; in assay [6] it was 17 µM. Further, the TGI in assay [7] is greater than 50.8 µM; in [8] it was greater than 41.2 µM; in assay [9], greater than 77.4 µM; in assay [10], 31.9 µM.
Consider `Cc1ccc(S(=O)(=O)N(CC(O)COc2ccccc2)c2c(F)c(F)c(F)c(F)c2F)cc1` (stereo not given), for which the TGI amounted to 29.6 µM in [1]; 33 µM in assay [2]; 38.9 µM in assay [3]; 34.5 µM in [4]; 33.2 µM in [5]; 34.4 µM in assay [6]. In addition, the TGI was 28.7 µM in assay [7], 35.2 µM in assay [8], 43.3 µM in assay [9] and 35.3 µM in assay [10].
In the case of `CC(Nc1cccc(Cl)c1)c1ccncc1` (stereo not given), the TGI in assay [1], in assay [2], in assay [3], in assay [4], in assay [5] and in assay [6] was greater than 100 µM each time. Moreover, the TGI in assay [7], in assay [8], in [9] and in assay [10] was greater than 100 µM each time.
For `O=[N+]([O-])C(/C(Cl)=C(/Cl)N1CCOCC1)=C1\Nc2ccccc2O1`, the TGI in assay [1], in [2], in assay [3], in [4], in [5] and in [6] was greater than 100 µM throughout. The TGI in assay [7], in [8], in assay [9] and in assay [10] was greater than 100 µM throughout.
For `CN(C)CC1CCC/C(=C\c2ccc(Cl)c(Cl)c2)C1=O` (stereo not given), the TGI in [1] was 23.8 µM; in assay [2], greater than 33.9 µM; in assay [3] it was 13.4 µM; in [4] it was 18.1 µM; in [5] it was 26.9 µM; in [6], 12.5 µM. In addition, the TGI in assay [7] was 5.01 µM; in [8], 26.8 µM; in assay [9], 22.4 µM; in assay [10], 25.5 µM.
`O=C1O/C(=C(\Br)c2ccc([N+](=O)[O-])cc2)c2ccccc21`: the TGI in [1] was greater than 100 µM; in assay [2], greater than 88.5 µM; in [3], greater than 100 µM; in [4], greater than 100 µM; in assay [5], greater than 100 µM; in assay [6], greater than 100 µM. Besides, the TGI in assay [7], in assay [8], in assay [9] and in assay [10] was greater than 100 µM in each case.
For the molecule `CCCCCCc1cc2cc(C(=O)Nc3nc(C45CC6CC(CC(C6)C4)C5)cs3)c(=O)oc2cc1O`, the TGI in assay [1] was 33.2 µM; in [2] it was greater than 100 µM; in assay [3], 39.4 µM; in assay [4], 31.4 µM; in [5], 31.3 µM; in assay [6] it was 38.6 µM. For the same molecule, the TGI is 61 µM in assay [7], 37.6 µM in assay [8], 60.1 µM in assay [9] and 51.4 µM in assay [10].
As to `O=c1[nH]nc(-c2ccc3ccccc3c2)[nH]1`, the TGI in assay [1], in [2], in assay [3], in [4], in assay [5] and in assay [6] was greater than 100 µM each time. For the same molecule, the TGI in assay [7] was greater than 100 µM; in [8], greater than 100 µM; in assay [9] it was greater than 100 µM; in [10], 64.4 µM.
`CCOP(=O)(OCC)/C(C#N)=C/c1nc[nH]c1C`: the TGI in assay [1], in assay [2], in assay [3], in assay [4], in assay [5] and in assay [6] was greater than 100 µM in each case. Besides, the TGI in assay [7], in assay [8], in assay [9] and in assay [10] was greater than 100 µM in each case.
Turning to `Cc1c2ccccc2c(/C=N/NC(=O)CSCC(=O)N/N=C/c2c3ccccc3c(C)c3ccccc23)c2ccccc12`, the TGI in [1] was 50.7 µM; in assay [2], greater than 100 µM; in assay [3] it was greater than 80.9 µM; in assay [4], greater than 100 µM; in assay [5] it was greater than 93.3 µM; in [6], greater than 56.9 µM. Moreover, the TGI is greater than 90.1 µM in [7], 36.1 µM in assay [8], greater than 100 µM in [9] and greater than 100 µM in [10].
Take `NC(CCC(=O)NC(CCC(=O)NO)C(=O)NCC(=O)O)C(=O)O` (stereo not given) (γGlu-Glu(NHOH)-Gly-OH; configuration not given here): the TGI in [1], in [2], in assay [3], in assay [4], in assay [5] and in assay [6] was greater than 100 µM each time. Further, the TGI in assay [7], in [8], in assay [9] and in assay [10] was greater than 100 µM in each case.
